Measured values as given in US20180353461A1, “USE OF CANNABINOIDS AS CERAMIDE-GENERATING ANTICANCER AGENTS IN TUMORS OF THE HEMATOPOIETIC AND LYMPHOID TISSUES” (priority 2014, published 2018).

Experiments:
Format in all cases: cell-based, human
HL60 cells [1] = experiment: Western blot time course of apoptotic proteins in HL60 cells
Procedure: Protein analyses were performed by Western blot in several sets of assays: expression pattern of CBs-receptors in AML cell lines and primary cells, and time course after treatment with cannabinoids in AML cell lines.
Cells were solubilized with ice-cold lysis buffer containing 2% ASB-14 (CalbioChem, San Diego, Calif., USA), 1% Nonidet P-40 (Ipegal®), 137 mM NaCl, 20 mM Tris-HCl pH 7.5 at 4° C. (all from Sigma-Aldrich), 2 mM Na3VO4, 20 mM NaF (New England BioLabs Inc., Ipswich, Mass., USA), 2 mM DTT (AppliChem, Darmstadt, Germany), protease inhibitor cocktail (Roche Diagnostics GmbH, Mannheim, Germany), and 10 ul Nuclease Mix (Amersham GE Healthcare, Uppsala, Sweden). Insoluble materials were removed by centrifugation at 13,000×g for 15 min at 4° C. Protein content was determined by Pierce® Microplate BCA Protein Assay kit-Reducing Agent Compatible (Thermo Fisher Scientific).
(§1) Extracted proteins (15-25 ug/well) were separated by sodium dodecyl sulfate-polyacrylamide gel electrophoresis (SDS/PAGE) in pre-cast polyacrylamide gels AnykD (Bio-Rad Laboratories, Hercules, Calif., USA) under reducing and denaturing conditions. Electrophoretic run was performed at a constant current of 15 mA per gel in a Mini-Protean® Tetra Cell (Bio-Rad Laboratories) and were electrophoretically transferred onto PVDF membranes using Trans-Blot® Turbo™ System (Bio-Rad Laboratories). Blocking was performed with 2% bovine serum albumin [(BSA), Santa Cruz Biotechnology] in Tween-Tris buffer saline (TTBS). Membranes were incubated overnight at 4° C. with corresponding primary antibody in TTBS.
Detection was performed using Western Blotting Luminol Reagent (Santa Cruz Biotechnology).
As in the case of MM cells, the antiproliferative effect of cannabinoids in AML is mediated by apoptotic mechanisms. […] Next, we evaluated Casp-3 activation using an antibody that recognizes the active forms of Casp-3, this is, the […]. […]

HL60 cells [2] = experiment: SPT expression, ceramide staining and SPT inhibition in HL60 cells
Procedure: as §1
Cells were grown on glass cover slips (Menzel-Glaser, Thermo Fisher Scientific) in the presence or absence of WIN 55,212-2. The cover slips were then washed twice in phosphate-buffered saline (PBS), and the cells were fixed in cold 4% paraformaldehyde for 10 min, treated with sodium borohydride and, permeabilized in 0.02% Triton X-100 in PBS with 10% normal donkey serum for blocking. Cell nuclei were stained with diamidino-2-phenylindole [(DAPI), Pierce, Thermo Fisher Scientific)]. Then, cells were incubated with the anti-CB1 or anti-CB2 receptor antibodies or anti-ceramide in blocking buffer overnight at 4° C. in a humid chamber (Simport, Beloeil, QC, Canada). After washing with PBS, samples were further incubated for 90 min with Alexa 647- or Alexa 488-conjugated donkey secondary antibody.
After final washing in PBS, the cover slips were dried and mounted on slides using Fluoromount Aqueous Mounting Medium (Sigma-Aldrich). Changes in the protein expression were visualized by fluorescence microscopy using a specific excitation for each antibody. Digital images were acquired with CellSens Dimension Software (Olympus) and manipulated with Photoshop CS2 Software (Adobe Systems Inc). There was no labeling when the primary antibody was omitted (data not shown).
Additionally, de novo synthesis of ceramides also contribute to the apoptotic process triggered by cannabinoids in AML. We examined whether ceramides participate in the cannabinoid-induced apoptosis in leukemic cells. To this end, we analyzed the expression of serine palmitoyltransferase (SPT), the enzyme that catalyses the rate-limiting step of ceramide synthesis de novo. […] To ensure that this up-regulation of SPT entails an increased of ceramide synthesis, we examined the expression of ceramide by immunohistochemistry. […] Furthermore, to strengthen the engagement of the ceramide in cannabinoid-induced apoptosis, we analyzed the cannabinoid-induce apoptosis after inhibition of ceramide synthesis with Myoricin, a selective SPT inhibitor.

HL60 cells [3] = experiment: Mitochondrial superoxide / ROS in HL60 cells (MitoSOX assay)
Procedure: Mitochondrial membrane potential and superoxide detection Cells (10e6 cells per assay) were treated with a concentration of WIN-55 for 15, 30, 45 and 60 min at 37° C. Fluorochromes 10 μM TMRM [(tetramethylrhodamine-ethyl-ester-perchlorate), Santa Cruz Biotechnology Inc.] to detect membrane potential, or 5 μM MitoSOX [Molecular Probes (Invitrogen)] to detect mitochondrial superoxide, were added for the last 15 min of treatment. CCCP (uncoupler of oxidative phosphorylation) or H2O2 (oxidant agent) was used as a positive control of the techniques respectively (Labbe et al., 2008). The fluorescence detection of TMRM was measured for flow citometry. Fluorescent intensity was quantified and analyzed using Infinicyt™ Software (Cytognos, Salamanca, Spain).
The MitoSOX signal was detected using a ‘Fluoroscan’ multi-well plate reader (Thermo Labsystems, Thermo Scientific), excitation/emission maxima of 543/593 nm.
To delve into the processes that participate in cannabinoid-induced apoptosis, we evaluated the potential of mitochondrial membrane potential in HL60 cells after treatment with WIN-55, at indicated times, using TMRE assay by flow citometry. We observed that cannabinoids induced a drop of Δψm in HL60 cells (FIG. 20a). The loss of potential started as early as 15 min after exposure to the cannabinoid, and continued decreasing over time. […]

CS(=O)(=O)O.Cc1c(C(=O)c2cccc3ccccc23)c2cccc3c2n1[C@H](CN1CCOCC1)CO3 [WIN-55, (R)-(+)-[2,3-dihydro-5-methyl-3-(4-morpholinylmethyl)-pyrrolo-[1,2,3]-1,4-benzoxazin-6-yl]-1-naphthalenylmethanone mesylate]
full-length PARP (HL60 cells [1]; HL60, WIN-55 50 uM, time course): decrease
85 kDa fragment of PARP (HL60 cells [1]; HL60, time course): increase
expression of the active 12 kDa-cleaved form of Casp-3 (HL60 cells [1]; HL60, time course): increased over time
SPT expression level in leukemic cells (HL60 cells [2]; HL60): enhanced
SPT, 2 h after exposure (HL60 cells [2]; HL60): moderate increase
ceramide by immunohistochemistry, compared to untreated cells (HL60 cells [2]; HL60, 50 uM, 18 hours): remarkable increase
ROS by MitoSOX assay (HL60 cells [3]): increase
